Test results taken from US9060541B2, “Sterilizer for foods” (Kawakami Co., Ltd., priority 2009, dated 2015).
Read-outs that look alike come from different tables or passages of the source.

Key:
Format in all cases: cell-based
Design in all cases: key: D: There is no sterilization effect.; C: There is a sterilization effect in step (1) but no sterilization effect in step (2).; B: There is a sterilization effect up to step (2) but no sterilization effect in step (3).; A: There is a sterilization effect up to step (3)
[1] = test system: Candida albicans NCPF 3179; experiment: Comparison test of sterilization effects against various food poisoning microbes
[2] = test system: Shigella dysenteriae serotype 2 KX-H214
[3] = test system: Salmonella serotype Agona KX-S143; experiment: Comparison test of sterilization effects against various food poisoning microbes
[4] = test system: Staphylococcus aureus (209P); experiment: Sterilization effect determination test (Fujimoto's modified method of the Kelsey-Sykes method); settings: Table 2; compositions of calcinated calcium and ethanol, water remainder; 20° C.; steps (1)-(3); listed as Ethanol 30 wt %
Escherichia coli (NIHJ) = experiment: as above; settings: Table 1; compositions of calcinated calcium and ethanol, water remainder; 20° C.; steps (1)-(3); listed as Ethanol 30 wt %
[5] = Table 7, test microbe solution without yeast extract
[6] = Table 8, yeast extract 4 weight % blended in test microbe solution

Q: Which Sterilization effect [1, 5] does the source give for `CCO` [EtOH 30%, ethanol] here?
A: B

Q: And the Sterilization effect [1, 6]?
A: C

Q: What about the Sterilization effect [2, 5] of the same compound?
A: C

Q: What about the Sterilization effect [2, 6] of the same compound?
A: C

Q: What about the Sterilization effect [3, 5] of the same compound?
A: C

Q: What about the Sterilization effect [3, 6] of the same compound?
A: C

Q: And the Sterilization effect [4]?
A: D

Q: What about the Sterilization effect (Escherichia coli (NIHJ)) of the same compound?
A: C

Q: Which results are given for `[Na+].[O-]Cl` [S.H 150 ppm, sodium hypochlorite]?
A: Sterilization effect [1, 5]: A; Sterilization effect [1, 6]: D; Sterilization effect [2, 5]: A; Sterilization effect [2, 6]: C; Sterilization effect [3, 5]: A; Sterilization effect [3, 6]: D
